Experiment [1] deals with HPK1 (Homo sapiens, UniProt Q92918). Put plainly: HPK1 Biochemical Assay (ADP-Glo luminescence; low ATP 10 μM or high ATP 200 μM). The settings on record: HPK1 ADP-Glo assay.
The test system of experiment [2] is p-SLP-76 (Ser376) in Jurkat cells. In words: pSLP76 Cellular Assay (AlphaLISA SureFire Ultra p-SLP-76 (Ser376), anti-CD3 activated Jurkat cells). In kind it is cell-based. To be noted: Homo sapiens; pSLP76 (Ser376) AlphaLISA, anti-CD3 activated Jurkat cells; read-out: Cellular Potency. Put shortly:
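Read-out is AlphaLISA p-SLP-76 (Ser376) signal at 570 nm in Jurkat lysates, with IC50 fitted by 4-parameter logistic. Cells were starved overnight, exposed 1 h at 37 °C to 22 twofold compound dilutions in HBSS, then activated 45 min with anti-CD3 (0.025 mg/ml stock added).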
On the technique in general: In Alpha technology, singlet oxygen from a donor bead excites a nearby acceptor bead.

[3] abbreviates: high ATP (200 μM ATP, 5 nM HPK1), read-out: Biochemical Potency (high ATP).
Setting [4] is: low ATP (10 μM ATP, 2 nM HPK1), read-out: Biochemical Potency (low ATP).

Results on 44 compounds are retold here after US12649751B2 (Arcus Biosciences, Inc., priority 2022, dated 2026).

Like-named read-outs stand apart in the source and are kept apart here.

Chain of HPK1 (Q92918 whole entry, species assumed): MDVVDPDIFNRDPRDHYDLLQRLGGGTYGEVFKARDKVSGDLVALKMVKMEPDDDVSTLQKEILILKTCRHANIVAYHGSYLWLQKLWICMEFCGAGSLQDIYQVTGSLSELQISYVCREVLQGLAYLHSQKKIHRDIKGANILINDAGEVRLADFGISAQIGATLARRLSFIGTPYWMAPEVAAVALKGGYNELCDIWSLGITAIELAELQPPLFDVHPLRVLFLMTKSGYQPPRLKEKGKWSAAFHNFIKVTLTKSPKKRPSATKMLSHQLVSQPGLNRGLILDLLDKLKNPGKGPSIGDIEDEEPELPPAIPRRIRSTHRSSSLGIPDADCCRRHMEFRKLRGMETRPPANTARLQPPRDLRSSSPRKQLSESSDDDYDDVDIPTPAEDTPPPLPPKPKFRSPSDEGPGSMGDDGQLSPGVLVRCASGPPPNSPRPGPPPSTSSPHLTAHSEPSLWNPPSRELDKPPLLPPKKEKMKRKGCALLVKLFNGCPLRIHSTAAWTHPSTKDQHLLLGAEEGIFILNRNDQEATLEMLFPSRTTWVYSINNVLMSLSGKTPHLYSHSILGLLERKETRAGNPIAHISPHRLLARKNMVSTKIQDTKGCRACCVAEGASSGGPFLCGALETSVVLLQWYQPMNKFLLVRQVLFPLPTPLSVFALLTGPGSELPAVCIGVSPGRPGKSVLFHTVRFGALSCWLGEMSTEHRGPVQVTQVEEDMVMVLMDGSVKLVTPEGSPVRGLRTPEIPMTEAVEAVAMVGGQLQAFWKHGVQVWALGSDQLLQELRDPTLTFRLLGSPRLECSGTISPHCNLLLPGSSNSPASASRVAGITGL

Take `Cc1cc(Nc2cc3nc(-c4cnn5c4CCCC5)sc3cn2)nc(N2C[C@@H]3C[C@H]2CN3C)n1` [Example 379]: the figures for the IC50 in experiment [1] (setting [3]) and in experiment [2] were less than 100 nM and 1000 to 5000 nM, respectively.

Turning to `Cc1cc(Nc2cc3nc(-c4cnn(CC5CC5(F)F)c4)sc3cn2)nc(N2C[C@@H]3C[C@H]2CN3C)n1` (stereo partly shown) [Example 380], the IC50 in experiment [1] (setting [3]) is less than 100 nM; in experiment [2] it was 1000 to 5000 nM.

As to `Cc1cc(Nc2cc3nc(-c4cnn(CCO)c4)sc3cn2)nc(N2C[C@@H]3C[C@H]2CN3C)n1` [Example 381], the values for the IC50 in experiment [1] (setting [3]) and in experiment [2] were less than 100 nM and 100 to 1000 nM, respectively.

As to `Cc1cc(Nc2cc3nc(-c4cccc(C(=O)N(C)C)c4)sc3cn2)nc(N2C[C@@H]3C[C@H]2CN3CC2CC2)n1` [Example 382], the IC50 in experiment [1] (setting [3]) was less than 100 nM; in experiment [2] it was 100 to 1000 nM.

Consider `CCN1C[C@@H]2C[C@H]1CN2c1nc(C)cc(Nc2cc3nc(-c4cnn(CC5CC5)c4)sc3cn2)n1` [Example 383], for which the IC50 in experiment [1] (setting [3]) and in experiment [2] was less than 100 nM throughout.

In the case of `Cc1cc(Nc2cc3nc(-c4cncc(C(F)F)c4)sc3cn2)nc(N2C[C@@H]3C[C@H]2CN3C)n1` [Example 384], the IC50 in experiment [1] (setting [3]) is less than 100 nM; in experiment [2] it was 100 to 1000 nM.

On to `Cc1cc(Nc2cc3nc(-c4cnn5c4COCC5)sc3cn2)nc(N2C[C@@H]3C[C@H]2CN3C)n1` [Example 385], for which the IC50 in experiment [1] (setting [3]) was less than 100 nM; in experiment [2], 100 to 1000 nM.

Take `Cc1cc(Nc2cc3nc(-c4cnn5ccccc45)sc3cn2)nc(N2C[C@@H]3C[C@H]2CN3C)n1` [Example 386]: the IC50 in experiment [1] (setting [3]) is less than 100 nM; in experiment [2], 1000 to 5000 nM.

Consider `CCC(O)(CC)c1cc(-c2nc3cc(Nc4cc(C)nc(N5C[C@@H]6C[C@H]5CN6C)n4)ncc3s2)ccn1` [Example 387], for which the IC50 in experiment [1] (setting [3]) is less than 100 nM; in experiment [2], 100 to 1000 nM.

In the case of `Cc1cc(Nc2cc3nc(-c4ncco4)sc3cn2)nc(N2C[C@@H]3C[C@H]2CN3C)n1` [Example 388], the IC50 in experiment [1] (setting [3]) was less than 100 nM; in experiment [2], 100 to 1000 nM.

As to `CC(=O)N1CCc2c(cccc2-c2nc3cc(Nc4cc(C)nc(N5C[C@@H]6C[C@H]5CN6C)n4)ncc3s2)C1` [Example 389], the IC50 fell in the range of 100 to 1000 nM in experiment [1] (setting [3]) and 1000 to 5000 nM in experiment [2].

`Cc1cc(Nc2cc3nc(-c4cccc(OC(F)F)c4)sc3cn2)nc(N2C[C@@H]3C[C@H]2CN3C)n1` [Example 390]: the IC50 was less than 100 nM in experiment [1] (setting [3]) and 100 to 1000 nM in experiment [2].

With `Cc1cc(Nc2cc3nc(-c4ccc(=O)n(C)c4)sc3cn2)nc(N2C[C@@H]3C[C@H]2CN3C)n1` [Example 391], the figures for the IC50 in experiment [1] (setting [3]) and in experiment [2] were 100 to 1000 nM and 1000 to 5000 nM, respectively.

`Cc1cc(Nc2cc3nc(-c4cccc(NC(=O)C5CC5)c4)sc3cn2)nc(N2C[C@@H]3C[C@H]2CN3C)n1` [Example 392]: the IC50 in experiment [1] (setting [3]) was less than 100 nM; in experiment [2], 100 to 1000 nM.

Turning to `Cc1cc(Nc2cc3nc(-c4cccc(C5(C(=O)N(C)C)CC5)c4)sc3cn2)nc(N2C[C@@H]3C[C@H]2CN3C)n1` [Example 393], the IC50 in experiment [1] (setting [3]) is less than 100 nM; in experiment [2], 100 to 1000 nM.

For the compound `Cc1cc(Nc2cc3nc(-c4cccc(C(C)(C)C(=O)N(C)C)c4)sc3cn2)nc(N2C[C@@H]3C[C@H]2CN3C)n1` [Example 394], the IC50 in experiment [1] (setting [3]) was less than 100 nM; in experiment [2], 100 to 1000 nM.

`Cc1cc(Nc2cc3nc(-c4cccc(CC(=O)N(C)C)c4)sc3cn2)nc(N2C[C@@H]3C[C@H]2CN3C)n1` [Example 395]: the IC50 in experiment [1] (setting [3]) and in experiment [2] was 100 to 1000 nM in each case.

With `CC(=O)N(C)c1cccc(-c2nc3cc(Nc4cc(C)nc(N5C[C@@H]6C[C@H]5CN6C)n4)ncc3s2)c1` [Example 396], the IC50 in experiment [1] (setting [3]) is less than 100 nM; in experiment [2], 100 to 1000 nM.

For the compound `Cc1cc(Nc2cc3nc(-c4ccnc(C5(O)CCCC5)c4)sc3cn2)nc(N2C[C@@H]3C[C@H]2CN3C)n1` [Example 397], the IC50 in experiment [1] (setting [3]) and in experiment [2] was less than 100 nM each time.

Turning to `Cc1cc(Nc2cc3nc(-c4cccc5c4CCN(C)C5=O)sc3cn2)nc(N2C[C@@H]3C[C@H]2CN3C)n1` [Example 398], the IC50 in experiment [1] (setting [3]) lay in the range of 100 to 1000 nM; in experiment [2] it was 1000 to 5000 nM.

Regarding `Cc1cc(Nc2cc3nc(-c4cccc(C(=O)N(C)C)c4F)sc3cn2)nc(N2C[C@@H]3C[C@H]2CN3C)n1` [Example 399], the IC50 in experiment [1] (setting [3]) was less than 100 nM; in experiment [2], 100 to 1000 nM.

Take `Cc1cc(Nc2cc3nc(-c4cccc5c4CN(C)C5=O)sc3cn2)nc(N2C[C@@H]3C[C@H]2CN3C)n1` [Example 400]: the IC50 was less than 100 nM in experiment [1] (setting [3]) and 5000 to 25000 nM in experiment [2].

Take `Cc1cc(Nc2cc3nc(-c4cccc(C(C)(C)O)c4F)sc3cn2)nc(N2C[C@@H]3C[C@H]2CN3C)n1` [Example 401]: the IC50 in experiment [1] (setting [3]) was less than 100 nM; in experiment [2], 100 to 1000 nM.

As to `Cc1cc(Nc2cc3nc(-c4cccc(C5(O)CCC5)c4)sc3cn2)nc(N2C[C@@H]3C[C@H]2CN3C)n1` [Example 402], the IC50 in experiment [1] (setting [3]) is less than 100 nM; in experiment [2] it was 100 to 1000 nM.

Consider `Cc1cc(Nc2cc3nc(-c4cccc(C5(O)CCCC5)c4)sc3cn2)nc(N2C[C@@H]3C[C@H]2CN3C)n1` [Example 403], for which the IC50 in experiment [1] (setting [3]) was less than 100 nM; in experiment [2] it was 100 to 1000 nM.

As for `Cc1cc(Nc2cc3nc(-c4cccc(C5CCOCC5)c4)sc3cn2)nc(N2C[C@@H]3C[C@H]2CN3C)n1` [Example 404], the IC50 is less than 100 nM in experiment [1] (setting [3]) and 1000 to 5000 nM in experiment [2].

Regarding `CN1C[C@@H]2C[C@H]1CN2c1nccc(Nc2cc3nc(-c4cccc(S(=O)(=O)C5CC5)c4)sc3cn2)n1` [Example 405], the IC50 in experiment [1] (setting [3]) was less than 100 nM; in experiment [2], 100 to 1000 nM.

Take `Cc1cc(Nc2cc3nc(-c4ccnc(C(C)(C)O)c4)sc3cn2)nc(N2C[C@@H]3C[C@H]2CN3C)n1` [Example 406]: the values for the IC50 in experiment [1] (setting [3]), in experiment [1] (setting [4]) and in experiment [2] were less than 100 nM, less than 100 nM and 100 to 1000 nM, respectively.

For the compound `Cc1cc(Nc2cc3nc(-c4ncccc4C)sc3cn2)nc(N2C[C@@H]3C[C@H]2CN3)n1` [Example 407], the IC50 in experiment [1] (setting [3]), in experiment [1] (setting [4]) and in experiment [2] was less than 100 nM in each case.

`CN1C[C@@H]2C[C@H]1CN2c1nccc(Nc2cc3nc(-c4ccnc(C(C)(O)C(F)(F)F)c4)sc3cn2)n1` (stereo partly shown) [Example 408]: the IC50 in experiment [1] (setting [3]) is less than 100 nM; in experiment [1] (setting [4]), less than 100 nM; in experiment [2] it was 100 to 1000 nM.

For the compound `c1cc(Nc2cc3nc(-c4ncco4)sc3cn2)nc(N2C[C@@H]3C[C@H]2CN3)n1` [Example 409], the results for the IC50 in experiment [1] (setting [3]), in experiment [1] (setting [4]) and in experiment [2] were less than 100 nM, less than 100 nM and 100 to 1000 nM, respectively.

On to `CN1C[C@@H]2C[C@H]1CN2c1cncc(Nc2cc3nc(-c4cccc(C(C)(O)C(F)(F)F)c4)sc3cn2)n1` (stereo partly shown) [Example 410], for which the IC50 in experiment [1] (setting [3]) was less than 100 nM; in experiment [1] (setting [4]), less than 100 nM; in experiment [2] it was 100 to 1000 nM.

As for `CN1C[C@@H]2C[C@H]1CN2c1cncc(Nc2cc3nc(-c4cccc(NS(C)(=O)=O)c4)sc3cn2)n1` [Example 412], the results for the IC50 in experiment [1] (setting [3]), in experiment [1] (setting [4]) and in experiment [2] were less than 100 nM, less than 100 nM and 100 to 1000 nM, respectively.

Take `CN1C[C@@H]2C[C@H]1CN2c1nccc(Nc2cc3nc(-c4cccc(NS(C)(=O)=O)c4)sc3cn2)n1` [Example 413]: the IC50 in experiment [1] (setting [3]) was less than 100 nM; in experiment [1] (setting [4]), less than 100 nM; in experiment [2] it was 1000 to 5000 nM.

In the case of `CN1C[C@@H]2C[C@H]1CN2c1cncc(Nc2cc3nc(-c4cccc(S(=O)(=O)N(C)C)c4)sc3cn2)n1` [Example 414], the IC50 was less than 100 nM in experiment [1] (setting [4]) and 1000 to 5000 nM in experiment [2].

Take `CN1C[C@@H]2C[C@H]1CN2c1nccc(Nc2cc3nc(-c4cccc(S(=O)(=O)N(C)C)c4)sc3cn2)n1` [Example 415]: the IC50 in experiment [1] (setting [4]) is less than 100 nM; in experiment [2], 100 to 1000 nM.

Consider `CNS(=O)(=O)c1cccc(-c2nc3cc(Nc4cncc(N5C[C@@H]6C[C@H]5CN6C)n4)ncc3s2)c1` [Example 416], for which the figures for the IC50 in experiment [1] (setting [4]) and in experiment [2] were less than 100 nM and 100 to 1000 nM, respectively.

On to `CCN1C[C@@H]2C[C@H]1CN2c1nc(C)cc(Nc2cc3nc(-c4cncc(OCC5CC5)c4)sc3cn2)n1` [Example 422], for which the IC50 in experiment [1] (setting [3]) is less than 100 nM; in experiment [2] it was 100 to 1000 nM.

In the case of `CC(=O)Nc1cccc(-c2nc3cc(Nc4cc(C)nc(N5C[C@@H]6C[C@H]5CN6C)n4)ncc3s2)c1` [Example 423], the figures for the IC50 in experiment [1] (setting [3]) and in experiment [2] were less than 100 nM and 100 to 1000 nM, respectively.

In the case of `OCCN1C[C@@H]2C[C@H]1CN2c1nc(Nc2cc3nc(-c4cnn(CC5CC5)c4)sc3cn2)ccc1F` [Example 424], the IC50 in experiment [1] (setting [3]) was less than 100 nM; in experiment [2], 100 to 1000 nM.

As to `CCN1C[C@@H]2C[C@H]1CN2c1nc(C)cc(Nc2cc3nc(N[C@H](C)c4ccccc4)sc3cn2)n1` [Example 425], the IC50 in experiment [1] (setting [3]) is less than 100 nM; in experiment [2], 1000 to 5000 nM.

For `Cc1cc(Nc2cc3nc(-n4cc(F)cn4)sc3cn2)nc(N2C[C@@H]3C[C@H]2CN3C)n1` [Example 429], the values for the IC50 in experiment [1] (setting [3]) and in experiment [2] were less than 100 nM and 100 to 1000 nM, respectively.

Regarding `c1cnn(-c2nc3cc(Nc4cncc(N5C[C@@H]6C[C@H]5CN6)n4)ncc3s2)c1` [Example 430], the IC50 in experiment [1] (setting [3]) is less than 100 nM; in experiment [1] (setting [4]), less than 100 nM; in experiment [2], 100 to 1000 nM.

Turning to `c1cnn(-c2nc3cc(Nc4ccnc(N5C[C@@H]6C[C@H]5CN6)n4)ncc3s2)c1` [Example 431], the IC50 was less than 100 nM in experiment [1] (setting [3]), less than 100 nM in experiment [1] (setting [4]) and 100 to 1000 nM in experiment [2].
